Assay: excess molar enthalpy (molar enthalpy of mixing); xn = mol fraction of the nth substance listed
Details: 101 kPa, Liquid, Calvet calorimetry

CCCCn1cc[n+](C)c1.F[P-](F)(F)(F)(F)F [1-butyl-3-methylimidazolium hexafluorophosphate] + CC(C)O
Details | excess molar enthalpy [kJ/mol]
288.15 K, x2 = 0.000943 | 0.00893
288.15 K, x2 = 0.001871 | 0.0178
288.15 K, x2 = 0.002806 | 0.0267
288.15 K, x2 = 0.003745 | 0.0353
288.15 K, x2 = 0.004685 | 0.0442
288.15 K, x2 = 0.00562 | 0.0528
288.15 K, x2 = 0.006556 | 0.0611
288.15 K, x2 = 0.007492 | 0.0698
298.15 K, x2 = 0.000909 | 0.00875
298.15 K, x2 = 0.001826 | 0.0175
298.15 K, x2 = 0.002738 | 0.0259
298.15 K, x2 = 0.003654 | 0.0343
298.15 K, x2 = 0.004571 | 0.0429
298.15 K, x2 = 0.005484 | 0.0515
298.15 K, x2 = 0.006398 | 0.0599
298.15 K, x2 = 0.007311 | 0.0684
308.15 K, x2 = 0.000919 | 0.00916
308.15 K, x2 = 0.001837 | 0.0176
308.15 K, x2 = 0.002753 | 0.0255
308.15 K, x2 = 0.003667 | 0.0332
308.15 K, x2 = 0.004579 | 0.0408
308.15 K, x2 = 0.00549 | 0.048
308.15 K, x2 = 0.006399 | 0.0553
308.15 K, x2 = 0.007307 | 0.0624
318.15 K, x2 = 0.000994 | 0.0101
318.15 K, x2 = 0.00201 | 0.0198
318.15 K, x2 = 0.003012 | 0.0288
318.15 K, x2 = 0.004011 | 0.0379
318.15 K, x2 = 0.005009 | 0.0466
318.15 K, x2 = 0.006005 | 0.0557
318.15 K, x2 = 0.006999 | 0.0644
318.15 K, x2 = 0.007991 | 0.0718

CCCCn1cc[n+](C)c1.F[P-](F)(F)(F)(F)F [1-butyl-3-methylimidazolium hexafluorophosphate] + CCCCO
Details | excess molar enthalpy [kJ/mol]
288.15 K, x2 = 0.000787 | 0.00833
288.15 K, x2 = 0.001572 | 0.0164
288.15 K, x2 = 0.002356 | 0.0245
288.15 K, x2 = 0.003139 | 0.0324
288.15 K, x2 = 0.003921 | 0.0404
288.15 K, x2 = 0.004701 | 0.0483
288.15 K, x2 = 0.00548 | 0.0561
288.15 K, x2 = 0.006258 | 0.0641
298.15 K, x2 = 0.000761 | 0.00859
298.15 K, x2 = 0.00152 | 0.0168
298.15 K, x2 = 0.002279 | 0.0253
298.15 K, x2 = 0.003036 | 0.0334
298.15 K, x2 = 0.003792 | 0.0414
298.15 K, x2 = 0.004547 | 0.0491
298.15 K, x2 = 0.005301 | 0.0568
298.15 K, x2 = 0.006053 | 0.0643
308.15 K, x2 = 0.000768 | 0.00844
308.15 K, x2 = 0.001541 | 0.0162
308.15 K, x2 = 0.002312 | 0.0235
308.15 K, x2 = 0.003086 | 0.0309
308.15 K, x2 = 0.003861 | 0.0385
308.15 K, x2 = 0.004632 | 0.0461
308.15 K, x2 = 0.005405 | 0.0539
308.15 K, x2 = 0.006177 | 0.0613
318.15 K, x2 = 0.000821 | 0.00952
318.15 K, x2 = 0.001647 | 0.0188
318.15 K, x2 = 0.00247 | 0.028
318.15 K, x2 = 0.003297 | 0.0361
318.15 K, x2 = 0.004125 | 0.0448
318.15 K, x2 = 0.004949 | 0.0534
318.15 K, x2 = 0.005774 | 0.0619
318.15 K, x2 = 0.006599 | 0.07
328.15 K, x2 = 0.000874 | 0.0114
328.15 K, x2 = 0.001747 | 0.0221
328.15 K, x2 = 0.002618 | 0.0321
328.15 K, x2 = 0.003488 | 0.0424
328.15 K, x2 = 0.004357 | 0.0526
328.15 K, x2 = 0.005223 | 0.0628
328.15 K, x2 = 0.006089 | 0.0729
328.15 K, x2 = 0.006952 | 0.0829

CCCCn1cc[n+](C)c1.F[P-](F)(F)(F)(F)F [1-butyl-3-methylimidazolium hexafluorophosphate] + CCCO
Details | excess molar enthalpy [kJ/mol]
288.15 K, x2 = 0.000953 | 0.00917
288.15 K, x2 = 0.001891 | 0.0173
288.15 K, x2 = 0.002836 | 0.0258
288.15 K, x2 = 0.003785 | 0.0345
288.15 K, x2 = 0.004734 | 0.0427
288.15 K, x2 = 0.005679 | 0.0513
288.15 K, x2 = 0.006625 | 0.0594
288.15 K, x2 = 0.007571 | 0.0676
298.15 K, x2 = 0.000901 | 0.00877
298.15 K, x2 = 0.001808 | 0.0173
298.15 K, x2 = 0.002711 | 0.0257
298.15 K, x2 = 0.003619 | 0.0338
298.15 K, x2 = 0.004527 | 0.0417
298.15 K, x2 = 0.005431 | 0.0496
298.15 K, x2 = 0.006336 | 0.0571
298.15 K, x2 = 0.007241 | 0.0647
308.15 K, x2 = 0.000957 | 0.00941
308.15 K, x2 = 0.001911 | 0.0179
308.15 K, x2 = 0.002864 | 0.0264
308.15 K, x2 = 0.003815 | 0.0348
308.15 K, x2 = 0.004765 | 0.0432
308.15 K, x2 = 0.005712 | 0.0515
308.15 K, x2 = 0.006658 | 0.0596
308.15 K, x2 = 0.007602 | 0.0676
318.15 K, x2 = 0.001129 | 0.0117
318.15 K, x2 = 0.002265 | 0.0233
318.15 K, x2 = 0.003396 | 0.0347
318.15 K, x2 = 0.004532 | 0.0456
318.15 K, x2 = 0.005668 | 0.057
318.15 K, x2 = 0.006798 | 0.0683
318.15 K, x2 = 0.007929 | 0.0794
318.15 K, x2 = 0.009059 | 0.0901

CCCCn1cc[n+](C)c1.F[P-](F)(F)(F)(F)F [1-butyl-3-methylimidazolium hexafluorophosphate] + CCO
Details | excess molar enthalpy [kJ/mol]
288.15 K, x2 = 0.001144 | 0.0087
288.15 K, x2 = 0.002285 | 0.0174
288.15 K, x2 = 0.003423 | 0.0263
288.15 K, x2 = 0.004559 | 0.0344
288.15 K, x2 = 0.005692 | 0.0435
288.15 K, x2 = 0.006823 | 0.0526
288.15 K, x2 = 0.007951 | 0.0615
288.15 K, x2 = 0.009076 | 0.0703
298.15 K, x2 = 0.001112 | 0.00861
298.15 K, x2 = 0.002231 | 0.0165
298.15 K, x2 = 0.003346 | 0.0242
298.15 K, x2 = 0.004465 | 0.0324
298.15 K, x2 = 0.005584 | 0.0392
298.15 K, x2 = 0.006698 | 0.047
298.15 K, x2 = 0.007812 | 0.0551
298.15 K, x2 = 0.008925 | 0.0626
308.15 K, x2 = 0.00114 | 0.0102
308.15 K, x2 = 0.002261 | 0.0179
308.15 K, x2 = 0.00339 | 0.0265
308.15 K, x2 = 0.004524 | 0.0351
308.15 K, x2 = 0.005658 | 0.0422
308.15 K, x2 = 0.006787 | 0.0498
308.15 K, x2 = 0.007915 | 0.0583
308.15 K, x2 = 0.009044 | 0.066
318.15 K, x2 = 0.001144 | 0.0106
318.15 K, x2 = 0.002294 | 0.0209
318.15 K, x2 = 0.00344 | 0.0287
318.15 K, x2 = 0.004591 | 0.0367
318.15 K, x2 = 0.005741 | 0.0462
318.15 K, x2 = 0.006886 | 0.0557
318.15 K, x2 = 0.008031 | 0.064
318.15 K, x2 = 0.009176 | 0.0729

CCO [ethanol] + O
298.15 K
Details | excess molar enthalpy [kJ/mol]
x1 = 0.000102 | -0.00104
x1 = 0.000206 | -0.00208
x1 = 0.000308 | -0.00312
x1 = 0.000412 | -0.00415
x1 = 0.000516 | -0.00518
x1 = 0.000619 | -0.00621
x1 = 0.000723 | -0.00722
x1 = 0.000827 | -0.00826
x1 = 0.000931 | -0.00927
x1 = 0.001034 | -0.0103
x1 = 0.001138 | -0.0113
x1 = 0.001241 | -0.0123
x1 = 0.001345 | -0.0133
x1 = 0.001448 | -0.0144
x1 = 0.001551 | -0.0154
x2 = 0.001021 | -0.00212
x2 = 0.00205 | -0.00424
x2 = 0.003074 | -0.0063
x2 = 0.004102 | -0.00835
x2 = 0.00513 | -0.0104
x2 = 0.006155 | -0.0124
x2 = 0.007179 | -0.0144
x2 = 0.008203 | -0.0163
x2 = 0.009225 | -0.0183
x2 = 0.01024 | -0.0202
x2 = 0.01125 | -0.0221
x2 = 0.01226 | -0.024
x2 = 0.01328 | -0.0259
x2 = 0.01428 | -0.0278
x2 = 0.01529 | -0.0296

CCCCCCC [heptane] + CCO
298.15 K
Details | excess molar enthalpy [kJ/mol]
x1 = 0.00013 | 0.00042
x1 = 0.000261 | 0.00084
x1 = 0.000392 | 0.00127
x1 = 0.000524 | 0.00168
x1 = 0.000655 | 0.00205
x1 = 0.000787 | 0.00246
x1 = 0.000919 | 0.00284
x1 = 0.001051 | 0.00321
x1 = 0.001183 | 0.00362
x1 = 0.001314 | 0.00399
x1 = 0.001445 | 0.00438
x1 = 0.001577 | 0.00475
x2 = 0.000794 | 0.0191
x2 = 0.001594 | 0.0368
x2 = 0.002391 | 0.0539
x2 = 0.003191 | 0.0701
x2 = 0.003992 | 0.0857
x2 = 0.00479 | 0.0999
x2 = 0.005589 | 0.113
x2 = 0.006387 | 0.125
x2 = 0.007185 | 0.136
x2 = 0.007976 | 0.146
x2 = 0.008768 | 0.155
x2 = 0.009558 | 0.163

— the NIST ThermoML archive (doi:10.1016/j.fluid.2007.06.007)
